Results: patent US20260083676A1, “SPRAY-DRIED AMORPHOUS SOLID DISPERSIONS AND METHOD FOR PREPARATION” (Merck Patent GMbH, priority 2022, published 2026)

How the values were obtained:
[1] = X-ray powder diffraction and DSC of spray-dried products; type: physicochemical; details: raw material and spray dried dispersion with PVA 3-82; FIG. 24 to 26
Method: (§1) Diffractograms of powders were measured using an Miniflex 600 X-ray diffractometer (Rigaku, Japan) with CuKα radiation (λ=1.54 A). Samples were scanned in reflectance mode from 3° to 50° 2θ (deg), with a scan speed of 10° 2θ (deg)/min and a step size of 0.020° 2θ (deg) and results are shown in FIG. 2. The acceleration voltage and current are 45 kV and 15 mA.
The DSC thermograms of the samples as shown in FIG. 3 were collected using a DSC 3 (METTLER, U.S.) under a nitrogen gas flow of 50 ml/min. A total of 2-5 mg sample powder was filled into an aluminum Tzero pan (40 μL) and sealed with an aluminum Tzero lid. The sample was analyzed at a heating rate of 5° C./min from −25° C. to 230° C.
Spray-drying of ASDs has been prepared as described in Example 2, XRD measurements have been performed as described in Example 1.
as §1, with “(deg).” for “(deg) and results are shown in FIG. 2.”

[2] = Dissolution measurement of PROTAC ARV-110 ASD in phosphate buffer pH 6.8; type: physicochemical; details: phosphate buffer pH 6.8, room temperature, 0.2 mg/ml, 120 minutes; FIG. 23
Method: For PROTAC ARV-110, the dissolution of the samples was determined at room temperature in phosphate buffer pH 6.8 as dissolution medium. 5 mg of bulk drug or spray dried powder samples equivalent to 5 mg of drug were weighted and placed into a 100 ml of Erlenmeyer flask, subsequently a magnetic stirring bar was added to the Erlenmeyer flask and stirred at 200 rpm, then 25 ml of dissolution medium was added. (concentration: 0.2 mg/ml)
At predetermined time points (5, 10, 20, 40, 60, 90, 120 min), 500 μl of sample were withdrawn from the dissolution vessels and immediately replaced by 500 μl of fresh dissolution medium. The dissolution samples were then filtered through a 0.45 μm filter. The sample is diluted with Eluent B (1:1). Finally, the samples were analyzed towards drug content using HPLC.
A C8-Column (Waters XBridge Column C8, 4.6×50 mm, 3.5 μm) column was used for the quantification.
The eluents are composed as follows: Eluent A: 0.1% formic acid in water; Eluent B: 0.1% formic acid in acetonitrile. Method: linear gradient of 10% to 90% Eluent B in 2 minutes at 1.7 ml/min flow rate.

solid state (XRD) [1]: crystalline
Compound: N#Cc1ccc(O[C@H]2CC[C@H](NC(=O)c3ccc(N4CCC(CN5CCN(c6cc7c(cc6F)C(=O)N(C6CCC(=O)NC6=O)C7=O)CC5)CC4)nn3)CC2)cc1Cl (some centres unmarked) [ARV-110]
dissolution [2]: neither the raw PROTAC 1, PROTAC 2 nor ARV110 show any measurable dissolution
